According to patent US10144732B2 (BIOGEN MA INC., priority 2014, dated 2018):
Several values for one entry are separate records, joined by “and”; a condition that tells them apart may be missing. Identical values can stand only once. Counter-ions that a name gives are not always drawn. Like-named read-outs stand apart in the source and are kept apart here.

Biological target: T1, Human ATX protein (Homo sapiens, UniProt Q13822)
T1 construct: made in house
Assay: ATX biochemical assay (FRET, FS-3 substrate)
Conditions: FS-3 2 μM, ATX 1.0 μg/mL, 30 minutes preincubation, 2 hours reaction at room temperature
Outline: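 FRET read-out: cleavage of FS-3 (2 μM final) unquenches fluorescein, measured at 485/538 nm after 2 h at room temperature. Before substrate addition, in-house-expressed human autotaxin (1.0 μg/mL) sat with compound for 30 min in pH 7.4 Tris/NaCl/KCl/CaCl2/MgCl2 buffer containing fatty acid free-BSA at 1 mg/mL.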

IC50 (FRET assay, read-out: IC50) | SMILES | IC50 (IC50, FRET assay) [nM]
≤ 100 nM | O=C(C[C@H]1CC[C@H](C(=O)O)CC1)N1CCc2c(C(F)(F)F)nn(Cc3ccc(F)c(F)c3)c2C1 [Example 5-31, trans-4-(2-(1-(3,4-Difluorobenzyl)-3-(trifluoromethyl)-4,5-dihydro-1H-pyrazolo[3,4-c]pyridin-6(7H)-yl)-2-oxoethyl)cyclohexanecarboxylic acid] | 
≤ 100 nM | O=C(O)CC1CCN(CC(=O)N2CCc3c(C(F)(F)F)nn(Cc4ccc(F)cc4)c3C2)CC1 [Example 13-15, 2-(1-(2-(1-(4-Fluorobenzyl)-3-(trifluoromethyl)-4,5-dihydro-1H-pyrazolo[3,4-c]pyridin-6(7H)-yl)-2-oxoethyl)piperidin-4-yl)acetic acid TFA salt] | 
≤ 100 nM | CC1CC(CC(=O)N2CCc3c(C(F)(F)F)nn(Cc4ccc(Cl)cc4F)c3C2)CCN1 (stereo not drawn) [Example 9-5, 1-(1-(4-Chloro-2-fluorobenzyl)-3-(trifluoromethyl)-4,5-dihydro-1H-pyrazolo[3,4-c]pyridin-6(7H)-yl)-2-(2-methylpiperidin-4-yl)ethanone TFA salt] | 
≤ 100 nM | O=C(C[C@H]1CC[C@H](C(=O)O)CC1)N1CCc2c(C(F)(F)F)nn(Cc3cc(F)c(F)c(F)c3)c2C1 [Example 5-33, trans-4-(2-(1-(3,4,5-Trifluorobenzyl)-3-(trifluoromethyl)-4,5-dihydro-1H-pyrazolo[3,4-c]pyridin-6(7H)-yl)-2-oxoethyl)cyclohexanecarboxylic acid] | 
≤ 100 nM | O=C(CC1CCC(N2CCC2)CC1)N1CCc2c(C(F)(F)F)nn(Cc3ccc(F)cc3)c2C1 (stereo not drawn) [Example 22-6, 2-(4-(Azetidin-1-yl)cyclohexyl)-1-(1-(4-fluorobenzyl)-3-(trifluoromethyl)-4,5-dihydro-1H-pyrazolo[3,4-c]pyridin-6(7H)-yl)ethanone TFA salt] | 
≤ 100 nM | O=C(O)C1CCCN(CC(=O)N2CCc3c(C(F)(F)F)nn(Cc4ccc(F)cc4)c3C2)CC1 (stereo not drawn) [Example 13-19, 1-(2-(1-(4-Fluorobenzyl)-3-(trifluoromethyl)-4,5-dihydro-1H-pyrazolo[3,4-c]pyridin-6(7H)-yl)-2-oxoethyl)azepane-4-carboxylic acid TFA salt] | 
≤ 100 nM | O=C(O)C1CCN(CC(=O)N2CCc3c(C(F)(F)F)nn(Cc4ccc(F)cc4)c3C2)C1 (stereo not drawn) [Example 13-12, 1-(2-(1-(4-Fluorobenzyl)-3-(trifluoromethyl)-4,5-dihydro-1H-pyrazolo[3,4-c]pyridin-6(7H)-yl)-2-oxoethyl)pyrrolidine-3-carboxylic acid] | 
≤ 100 nM | O=C(O)C1CCC(CC(=O)N2CCc3c(C(F)(F)F)nn(Cc4cccc(F)c4)c3C2)CC1 (mixture of isomers) [Example 6-1, 4-(2-(1-(3-Fluorobenzyl)-3-(trifluoromethyl)-4,5-dihydro-1H-pyrazolo[3,4-c]pyridin-6(7H)-yl)-2-oxoethyl)cyclohexanecarboxylic acid] | 
≤ 100 nM | O=C(O)C1CCC(CC(=O)N2CCc3c(C(F)(F)F)nn(Cc4ccccc4F)c3C2)CC1 (mixture of isomers) [Example 6-3, 4-(2-(1-(2-Fluorobenzyl)-3-(trifluoromethyl)-4,5-dihydro-1H-pyrazolo[3,4-c]pyridin-6(7H)-yl)-2-oxoethyl)cyclohexanecarboxylic acid] | 
≤ 100 nM | O=C(C[C@H]1CC[C@@H](C(=O)O)CC1)N1CCc2c(C(F)(F)F)nn(Cc3ccc(Cl)cc3)c2C1 [Example 7-6, cis-4-(2-(1-(4-chlorobenzyl)-3-(trifluoromethyl)-4,5-dihydro-1H-pyrazolo[3,4-c]pyridin-6(7H)-yl)-2-oxoethyl)cyclohexanecarboxylic acid] | 
≤ 100 nM | O=C(C[C@H]1CC[C@H](C(=O)O)CC1)N1CCc2c(C(F)(F)F)nn(Cc3ccc(Cl)cc3F)c2C1 [Example 5-1, trans-4-(2-(1-(4-Chloro-2-fluorobenzyl)-3-(trifluoromethyl)-4,5-dihydro-1H-pyrazolo[3,4-c]pyridin-6(7H)-yl)-2-oxoethyl)cyclohexanecarboxylic acid] | 
≤ 100 nM | N#Cc1ccc(Cn2nc(C(F)(F)F)c3c2CN(C(=O)C[C@H]2CC[C@@H](C(=O)O)CC2)CC3)cc1 (stereo in doubt) [Example 5-35, cis-4-(2-(1-(4-Cyanobenzyl)-3-(trifluoromethyl)-4,5-dihydro-1H-pyrazolo[3,4-c]pyridin-6(7H)-yl)-2-oxoethyl)cyclohexanecarboxylic acid] | 

Further lines, the compound ahead of its results:

SMILES | IC50 (FRET assay, read-out: IC50) | IC50 (IC50, FRET assay) [nM]
CN1C2CCC1CC(CC(=O)N1CCc3c(C(F)(F)F)nn(Cc4ccc(Cl)cc4F)c3C1)C2 (stereo not drawn) [Example 10-1, 1-(1-(4-Chloro-2-fluorobenzyl)-3-(trifluoromethyl)-4,5-dihydro-1H-pyrazolo[3,4-c]pyridin-6(7H)-yl)-2-(8-methyl-8-aza-bicyclo[3.2.1]octan-3-yl)ethanone TFA salt] |  | ≤ 100
O=C(Cc1ccccc1)N1CCc2c(C(F)(F)F)nn(Cc3ccc(Cl)cc3F)c2C1 [Example 1-3, 1-(1-(4-Chloro-2-fluorobenzyl)-3-(trifluoromethyl)-4,5-dihydro-1H-pyrazolo[3,4-c]pyridin-6(7H)-yl)-2-phenylethanone] | ≤ 100 nM | 
O=C(Cc1ccc(F)cc1)N1CCc2c(C(F)(F)F)nn(Cc3ccc(Cl)cc3F)c2C1 [Example 1-12, 1-(1-(4-Chloro-2-fluorobenzyl)-3-(trifluoromethyl)-4,5-dihydro-1H-pyrazolo[3,4-c]pyridin-6(7H)-yl)-2-(4-fluorophenyl)ethanone] | ≤ 100 nM | 
O=C(O)CN1CCC(C(=O)N2CCc3c(C(F)(F)F)nn(Cc4ccc(F)cc4)c3C2)C1 (stereo not drawn) [Example 15-4, 2-(3-(1-(4-Fluorobenzyl)-3-(trifluoromethyl)-4,5,6,7-tetrahydro-1H-pyrazolo[3,4-c]pyridine-6-carbonyl)pyrrolidin-1-yl)acetic acid TFA salt] | ≤ 100 nM | 
CC1CC(CC(=O)N2CCc3c(C(F)(F)F)nn(Cc4ccc(Cl)cc4F)c3C2)CCN1C(=O)OC(C)(C)C (stereo not drawn) [Example 8-5, tert-Butyl 4-(2-(1-(4-chloro-2-fluorobenzyl)-3-(trifluoromethyl)-4,5-dihydro-1H-pyrazolo[3,4-c]pyridin-6(7H)-yl)-2-oxoethyl)-2-methylpiperidine-1-carboxylate] | ≤ 100 nM | 
O=C(CC12CCC(C(=O)O)(CC1)C2)N1CCc2c(C(F)(F)F)nn(Cc3ccc(Cl)cc3F)c2C1 [Example 5-52, 4-(2-(1-(4-Chloro-2-fluorobenzyl)-3-(trifluoromethyl)-4,5-dihydro-1H-pyrazolo[3,4-c]pyridin-6(7H)-yl)-2-oxoethyl)bicyclo[2.2.1]heptane-1-carboxylic acid] | ≤ 100 nM | 
CC1CCN(CC(=O)N2CCc3c(C(F)(F)F)nn(Cc4ccc(F)cc4)c3C2)CC1 [Example 12-14, 1-(1-(4-Fluorobenzyl)-3-(trifluoromethyl)-4,5-dihydro-1H-pyrazolo[3,4-c]pyridin-6(7H)-yl)-2-(4-methylpiperidin-1-yl)ethanone] | ≤ 100 nM | 
COC(=O)[C@H]1CC[C@@H](N(C)C(=O)N2CCc3c(C(F)(F)F)nn(Cc4ccc(Cl)cc4F)c3C2)CC1 [Example 3-3, cis-Methyl 4-(1-(4-chloro-2-fluorobenzyl)-N-methyl-3-(trifluoromethyl)-4,5,6,7-tetrahydro-1H-pyrazolo[3,4-c]pyridine-6-carboxamido)cyclohexanecarboxylate] | > 500 nM and ≤ 10000 nM | 
O=C(C[C@H]1CC[C@H](C(=O)O)CC1)N1CCc2c(-c3ccccc3)nn(Cc3ccc(F)cc3)c2C1 [Example 5-39, trans-4-(2-(1-(4-Fluorobenzyl)-3-phenyl-4,5-dihydro-1H-pyrazolo[3,4-c]pyridin-6(7H)-yl)-2-oxoethyl)cyclohexanecarboxylic acid] | ≤ 100 nM | 
O=C(CC12CCC(C(=O)O)(CC1)CC2)N1CCc2c(C(F)(F)F)nn(Cc3ccc(Cl)cc3F)c2C1 [Example 5-12, 4-(2-(1-(4-Chloro-2-fluorobenzyl)-3-(trifluoromethyl)-4,5-dihydro-1H-pyrazolo[3,4-c]pyridin-6(7H)-yl)-2-oxoethyl)bicyclo[2.2.2]octane-1-carboxylic acid] | ≤ 100 nM | 
O=C(CC12CCC(C(=O)O)(CC1)C2)N1CCc2c(C(F)(F)F)nn(Cc3ccc(F)cc3)c2C1 [Example 5-53, 4-(2-(1-(4-Fluorobenzyl)-3-(trifluoromethyl)-4,5-dihydro-1H-pyrazolo[3,4-c]pyridin-6(7H)-yl)-2-oxoethyl)bicyclo[2.2.1]heptane-1-carboxylic acid] | ≤ 100 nM | 
CCOC(=O)C1CCC(CC(=O)N2CCc3c(C(F)(F)F)nn(CC4CCCCC4)c3C2)CC1 (stereo not drawn) [Example 1-16, Ethyl 4-(2-(1-(cyclohexylmethyl)-3-(trifluoromethyl)-4,5-dihydro-1H-pyrazolo[3,4-c]pyridin-6(7H)-yl)-2-oxoethyl)cyclohexanecarboxylate] | ≤ 100 nM | 
O=C(CN1CCCCC1)N1CCc2c(C(F)(F)F)nn(Cc3ccc(Cl)cc3F)c2C1 [Example 12-2, 1-(1-(4-Chloro-2-fluorobenzyl)-3-(trifluoromethyl)-4,5-dihydro-1H-pyrazolo[3,4-c]pyridin-6(7H)-yl)-2-(piperidin-1-yl)ethanone] | ≤ 100 nM | 
COC(=O)[C@H]1CC[C@H](N(C)C(=O)N2CCc3c(C(F)(F)F)nn(Cc4ccc(Cl)cc4F)c3C2)CC1 [Example 3-4, trans-Methyl 4-(1-(4-chloro-2-fluorobenzyl)-N-methyl-3-(trifluoromethyl)-4,5,6,7-tetrahydro-1H-pyrazolo[3,4-c]pyridine-6-carboxamido)cyclohexanecarboxylate] | 100 to 250 nM | 
CC(C)(C)OC(=O)N1C2CCC1CC(CC(=O)N1CCc3c(C(F)(F)F)nn(Cc4ccc(Cl)cc4F)c3C1)C2 (stereo not drawn) [Example 8-1, tert-Butyl 3-(2-(1-(4-chloro-2-fluorobenzyl)-3-(trifluoromethyl)-4,5-dihydro-1H-pyrazolo[3,4-c]pyridin-6(7H)-yl)-2-oxoethyl)-8-azabicyclo[3.2.1]octane-8-carboxylate] |  | ≤ 100
